According to article PMC10124317 (Biochemistry, 2023):

Biological target: HDAC1 (Homo sapiens, UniProt Q13547)
Settings: HDAC1 0.1 μM preincubated 10 min with 5 μM TSA, then 1b or 2b

Chain of HDAC1 (Q13547 whole entry): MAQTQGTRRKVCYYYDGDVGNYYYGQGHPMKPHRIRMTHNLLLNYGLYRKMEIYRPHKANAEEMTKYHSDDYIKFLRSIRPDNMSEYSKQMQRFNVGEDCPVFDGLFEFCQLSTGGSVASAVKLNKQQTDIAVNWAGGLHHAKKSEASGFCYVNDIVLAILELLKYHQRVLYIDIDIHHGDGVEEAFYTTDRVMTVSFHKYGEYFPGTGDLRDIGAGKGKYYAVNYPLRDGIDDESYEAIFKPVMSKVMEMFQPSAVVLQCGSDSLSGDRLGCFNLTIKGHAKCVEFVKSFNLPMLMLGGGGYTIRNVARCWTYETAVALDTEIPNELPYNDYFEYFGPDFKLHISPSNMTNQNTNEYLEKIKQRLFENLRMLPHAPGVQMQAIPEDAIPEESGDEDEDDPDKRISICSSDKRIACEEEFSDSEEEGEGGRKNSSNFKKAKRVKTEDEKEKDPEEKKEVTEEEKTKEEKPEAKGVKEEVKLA

trichostatin A [TSA]
covalent modification of HDAC1 remaining after preincubation with TSA: ~ 10%
